One experiment concerns MDA-MB-435. In words: Antiproliferative activity against human MDA-MB-435 cells assessed as mean cell growth at 10 uM incubated for 48 hrs by SRB assay relative to control. Type of experiment: functional.
A further experiment concerns SK-MEL-5. In words: Antiproliferative activity against human SK-MEL-5 cells assessed as mean cell growth at 10 uM incubated for 48 hrs by SRB assay relative to control. In kind it is functional.
Experiment [1] relates to Panel NCI-60 (60 carcinoma cell lines). In words: Antiproliferative activity against human panel NCI-60 (60 carcinoma cell lines) incubated for 48 hrs by SRB assay. In kind it is functional. In general terms: In SRB staining, fixed cells bind dye roughly in proportion to their protein.
For experiment [2] the test system is unchanged. Put plainly: Antiproliferative activity against human panel NCI-60 (60 carcinoma cell lines) assessed as total inhibition of cell growth incubated for 48 hrs by SRB assay. In kind it is functional.
A further experiment relates to COLO357. In words: Inhibition of cell growth in human COLO357 cells incubated for 72 hrs by MTT assay. In kind it is functional, cell-based. The note with it: COLO357, time 72 hrs. On the technique in general: Formazan colour is commonly taken as a measure of viable cells.
The next experiment deals with HL-60(TB). In words: Antiproliferative activity against human HL-60(TB) cells assessed as mean cell growth at 10 uM incubated for 48 hrs by SRB assay relative to control. In kind it is functional.
The next experiment relates to K562. Put plainly: Inhibition of cell growth in human K562 cells incubated for 72 hrs by MTT assay. Type of experiment: functional, cell-based. The settings on record: K562, time 72 hrs.
The subject of another experiment is Panc02. Put plainly: Inhibition of cell growth in mouse Panc02 cells incubated for 72 hrs by MTT assay. Type of experiment: functional.

The term GI50 denotes the concentration that inhibits growth by half. Low readings indicate more potent growth inhibition, high ones less potent growth inhibition. Broadly, the LC50 is the concentration lethal to half of the exposed cells or organisms. Low values mean a more lethal substance, high ones a less lethal substance.

Structures are written as SMILES.

In the case of `CCN1C(=O)N(CC)C2Nn3c(s/c(=C\c4ccc(Cl)cc4Cl)c3=O)=NC21` (stereo not given), the Activity in the experiment with MDA-MB-435 is given as 40%.
As for `COc1cccc2c1C(=O)c1c(O)c3c(c(O)c1C2=O)C[C@@](O)(C(=O)CO)C[C@@H]3O[C@H]1C[C@H](N)[C@H](O)[C@H](C)O1` [DOXORUBICIN], the Activity with SK-MEL-5 is recorded as -20%.
Regarding `CCN1C(=O)N(CC)C2Nn3c(s/c(=C\c4cccc([N+](=O)[O-])c4)c3=O)=NC21` (stereo not given), in the experiment with MDA-MB-435, the Activity amounted to 42%.
With `CN1C(=O)N(C)C2C1NN=c1s/c(=C\c3ccc(Br)cc3)c(=O)n12` (stereo not given), the Activity in the experiment with MDA-MB-435 was 29%.
In experiment [1], `CCN1C(=O)N(CC)C2Nn3c(s/c(=C\c4ccccc4Br)c3=O)=NC21` (stereo not given) gave a 50% growth inhibitory concentration (GI50) of 2430 nM and an LC50 above 95000 nM. The GI in experiment [2] is above 53.6 µM. The Activity in the experiment with MDA-MB-435 is 22%.
For the compound `CCN1C(=O)N(CC)C2C1NN=c1s/c(=C\c3ccc(OC)cc3)c(=O)n12` (stereo not given), the GI50 came out at 2280 nM in experiment [1], 400 nM in the experiment with COLO357, 400 nM with K562 and 16 nM with Panc02. The LC50 in experiment [1] is above 95500 nM. Besides, the GI in experiment [2] was above 71.4 µM. Besides, the “Cell growth relative to control” value with HL-60(TB) was found to be 19%.
On to `CC[C@@]1(O)C(=O)OCc2c1cc1n(c2=O)Cc2cc3ccccc3nc2-1` [CAMPTOTHECIN], for which the Activity in the experiment with SK-MEL-5 is -27%.
On to `CN1C(=O)N(C)C2Nn3c(s/c(=C\c4ccccc4F)c3=O)=NC21` (stereo not given), for which the Activity in the experiment on MDA-MB-435 is 69%.
For `CCN1C(=O)N(CC)C2C1NN=c1s/c(=C\c3ccccc3)c(=O)n12` (stereo not given), the concentration for 50% growth inhibition (GI50) stood at 2290 nM in experiment [1], 80 nM in the experiment on COLO357, 80 nM with K562 and 80 nM in the experiment with Panc02. In addition, in experiment [1], the median lethal concentration (LC50) is above 97600 nM. Besides, the GI in experiment [2] was above 84.6 µM. The “Cell growth relative to control” value in the experiment on HL-60(TB) amounted to 19%.
For the compound `CN1C(=O)N(C)C2C1NN=c1s/c(=C\c3cccc([N+](=O)[O-])c3)c(=O)n12` (stereo not given), the Activity in the experiment on MDA-MB-435 is reported as 88%.
As for `CCN1C(=O)N(CC)C2C1NN=c1s/c(=C\c3cccc(F)c3)c(=O)n12` (stereo not given), the GI50 in experiment [1] is 2450 nM; with COLO357, 80 nM; in the experiment on K562, 80 nM; with Panc02 it was 80 nM. Moreover, the LC50 in experiment [1] was above 99100 nM. Further, the GI in experiment [2] was above 81.2 µM. In the experiment with MDA-MB-435, the Activity stood at 23%.
In the case of `CCN1C(=O)N(CC)C2C1NN=c1s/c(=C\c3ccccc3F)c(=O)n12` (stereo not given), the 50% growth inhibitory concentration (GI50) in experiment [1] is 240 nM; in the experiment on COLO357 it was 16 nM; with K562 it was 16 nM; with Panc02, 3.2 nM. The same compound showed an LC50 in experiment [1] above 95500 nM. In addition, the GI in experiment [2] was above 63.3 µM. Also, the “Cell growth relative to control” value in the experiment on HL-60(TB) amounted to 18%.
In the case of `COc1ccc(/C=c2\sc3n(c2=O)C2C(NN=3)N(C)C(=O)N2C)cc1` (stereo not given), the GI50 came out at 7320 nM in experiment [1], 400 nM in the experiment on COLO357, 2000 nM in the experiment with K562 and 400 nM in the experiment with Panc02. Also, the LC50 in experiment [1] was above 100000 nM. Moreover, the GI in experiment [2] was above 83.8 µM. Also, the Activity in the experiment with MDA-MB-435 was 24%.
Take `CCN1C(=O)N(CC)C2Nn3c(s/c(=C\c4ccc(OC)cc4)c3=O)=NC21` (stereo not given): the Activity in the experiment on MDA-MB-435 is on record as 48%.
Regarding `CCN1C(=O)N(CC)C2Nn3c(s/c(=C\c4cccc(F)c4)c3=O)=NC21` (stereo not given), the Activity in the experiment on MDA-MB-435 is 65%.
Still for that read-out and setting: next, `CN1C(=O)N(C)C2Nn3c(s/c(=C\c4ccc(Cl)cc4Cl)c3=O)=NC21` (stereo not given): 56%.
On to `CN1C(=O)N(C)C2C1NN=c1s/c(=C\c3ccc(Cl)cc3Cl)c(=O)n12` (stereo not given), for which the GI50 was found to be 650 nM in experiment [1], 80 nM in the experiment on COLO357, 80 nM in the experiment with K562 and 80 nM in the experiment on Panc02. Besides, the median lethal concentration (LC50) in experiment [1] is above 100000 nM. Moreover, in experiment [2], the GI is above 78 µM. Also, the “Cell growth relative to control” value in the experiment on HL-60(TB) is recorded as 27%.
As to `CCN1C(=O)N(CC)C2C1NN=c1s/c(=C\c3cccc([N+](=O)[O-])c3)c(=O)n12` (stereo not given), the 50% growth inhibitory concentration (GI50) in experiment [1] came out at 2020 nM; with COLO357, 400 nM; with K562 it was 400 nM; with Panc02, 80 nM. In addition, in experiment [1], the LC50 is above 98700 nM. The GI in experiment [2] is above 83.1 µM. In addition, the “Cell growth relative to control” value with HL-60(TB) was 23%.
Consider `CCN1C(=O)N(CC)C2Nn3c(s/c(=C\c4ccccc4)c3=O)=NC21` (stereo not given), for which the Activity in the experiment with MDA-MB-435 is recorded as 67%.
Take `CCN1C(=O)N(CC)C2Nn3c(s/c(=C\c4ccccc4F)c3=O)=NC21` (stereo not given): the Activity in the experiment on MDA-MB-435 amounted to 41%.
Take `CN1C(=O)N(C)C2C1NN=c1s/c(=C\c3ccc(C(F)(F)F)cc3)c(=O)n12` (stereo not given): in experiment [1], the GI50 came to 4210 nM and the LC50 is above 97700 nM. Further, the GI in experiment [2] was above 72.2 µM. Moreover, in the experiment with MDA-MB-435, the Activity is reported as 26%.
With `CCN1C(=O)N(CC)C2C1NN=c1s/c(=C\c3ccc([N+](=O)[O-])cc3)c(=O)n12` (stereo not given), the concentration for 50% growth inhibition (GI50) in experiment [1] was determined as 1040 nM; in the experiment with COLO357 it was 400 nM; with K562 it was 400 nM; with Panc02 it was 400 nM. The same compound registered a 50% lethal concentration (LC50) in experiment [1] above 98600 nM. Moreover, the GI in experiment [2] was above 63 µM. Also, the “Cell growth relative to control” value in the experiment on HL-60(TB) was determined as 26%.
Consider `CCN1C(=O)N(CC)C2C1NN=c1s/c(=C\c3ccccc3Br)c(=O)n12` (stereo not given), for which, in experiment [1], halving of growth (GI50) required 920 nM and the 50% lethal concentration (LC50) was above 87500 nM. In addition, the GI in experiment [2] is above 38.3 µM. In addition, the “Cell growth relative to control” value with HL-60(TB) amounted to 21%.
Turning to `CN1C(=O)N(C)C2C1NN=c1s/c(=C\c3ccc([N+](=O)[O-])cc3)c(=O)n12` (stereo not given), in the experiment on MDA-MB-435, the Activity is reported as 58%.
For `CCN1C(=O)N(CC)C2C1NN=c1s/c(=C\c3ccc(F)cc3)c(=O)n12` (stereo not given), the GI50 in experiment [1] amounted to 1680 nM; with COLO357 it was 80 nM; in the experiment on K562, 400 nM; with Panc02 it was 80 nM. Moreover, in experiment [1], the LC50 is above 97800 nM. The GI in experiment [2] is above 81.3 µM. In the experiment with HL-60(TB), the “Cell growth relative to control” value amounted to 21%.
With `CCN1C(=O)N(CC)C2C1NN=c1s/c(=C\c3ccc(C(F)(F)F)cc3)c(=O)n12` (stereo not given), the 50% growth inhibitory concentration (GI50) in experiment [1] is 610 nM; in the experiment with COLO357, 2000 nM; in the experiment with K562, 2000 nM; in the experiment with Panc02 it was 2000 nM. In experiment [1], the LC50 was above 96600 nM. In experiment [2], the GI was above 65.4 µM. Moreover, the “Cell growth relative to control” value in the experiment on HL-60(TB) was 19%.
For `CN1C(=O)N(C)C2C1NN=c1s/c(=C\c3ccc(F)cc3)c(=O)n12` (stereo not given), in experiment [1], the GI50 was found to be 3470 nM and the 50% lethal concentration (LC50) was above 97600 nM. Moreover, the GI in experiment [2] is above 81.5 µM. The “Cell growth relative to control” value with HL-60(TB) was 28%.
For the compound `CN1C(=O)N(C)C2C1NN=c1s/c(=C\c3ccccc3F)c(=O)n12` (stereo not given), the GI50 came out at 610 nM in experiment [1], 80 nM in the experiment on COLO357, 400 nM with K562 and 16 nM in the experiment on Panc02. The LC50 in experiment [1] was above 97600 nM. The GI in experiment [2] was above 75.9 µM. Also, the “Cell growth relative to control” value in the experiment with HL-60(TB) is recorded as 21%.
As to `CCN1C(=O)N(CC)C2C1NN=c1s/c(=C\c3ccc(Br)cc3)c(=O)n12` (stereo not given), the GI50 in experiment [1] came out at 2570 nM; with COLO357 it was 80 nM; in the experiment with K562 it was 80 nM; in the experiment on Panc02, 400 nM. In addition, in experiment [1], the median lethal concentration (LC50) was above 100000 nM. In addition, the GI in experiment [2] is above 80.5 µM. In addition, in the experiment with HL-60(TB), the “Cell growth relative to control” value amounted to 19%.
On to `COc1cccc2c1C(=O)c1c(O)c3c(c(O)c1C2=O)C[C@@](O)(C(C)=O)C[C@@H]3O[C@H]1C[C@H](N)[C@H](O)[C@H](C)O1` [DAUNORUBICIN], for which the Activity with SK-MEL-5 is recorded as -28%.
`CN1C(=O)N(C)C2C1NN=c1s/c(=C\c3ccccc3)c(=O)n12` (stereo not given): the Activity with MDA-MB-435 stood at 41%.

For the origin of these results see ChEMBL document CHEMBL5385976, “Recognition of arylmethylidene derivatives of imidazothiazolotriazinones as novel tubulin polymerization inhibitors” (RSC Med Chem, 2024).
